Experimental data from patent US9827189B2, “Stable parenteral DNJ compositions” (AMICUS THERAPEUTICS, INC., priority 2013, dated 2017).
Structures can show the parent of a compound that is named as a salt.

Columns and labels:
rat whole blood = experiment: Hemolytic potential in rat whole blood; format: cell-based, Sprague Dawley rat; details: 37 ° C. 30 minutes
Protocol: 1-DNJ-HCl was dissolved in sodium citrate buffer. 1-DNJ-HCl concentration was 30 mg/mL (resulting free 1-DNJ concentration was 25 mg/mL); sodium citrate buffer concentration was 50 mM at pH 5.0. 1-DNJ-HCl formulation was added to whole blood samples of male human, rat, and cynomolgus monkey. […]. Buffer served as a negative control, while Triton-X 100 (Lysing agent) served as a positive control. Additionally blood sample without any additions was used as a negative control. The samples were stored at 4° C. Blood samples were incubated at 37 ° C. for 30 minutes with the 1-DNJ-HCl formulation, after which the samples were centrifuged. The amount of hemoglobin in the supernatant from each centrifuged sample was measured using a commercially available hemoglobin assay kit (BioAssay Systems, QuantiChrom™ Hemoglobin Assay Kit) and the Tecan microplate reader.

[1] = Osmolality of 1-DNJ-HCl in sodium citrate buffer by freezing point; format: physicochemical
Protocol: The molallity of 1-deoxynojirimycin chloride (1-DNJ-HCl) was determined by freezing point depreciation. 1-deoxynojirimycin chloride concentration ranged from 30 mg/mL to 60 mg/mL. Sodium citrate concentration ranged from 20 to 50 mM.

Osmolality ([1]; 1-DNJ-HCl 30 mg/mL, Sodium Citrate Buffer 20 mM): 311 mOsm/kg
Osmolality ([1]; 1-DNJ-HCl 30 mg/mL, Sodium Citrate Buffer 25 mM): 327 mOsm/kg
Osmolality ([1]; 1-DNJ-HCl 30 mg/mL, Sodium Citrate Buffer 30 mM): 343 mOsm/kg
Osmolality ([1]; 1-DNJ-HCl 30 mg/mL, Sodium Citrate Buffer 35 mM): 358 mOsm/kg
Osmolality ([1]; 1-DNJ-HCl 30 mg/mL, Sodium Citrate Buffer 40 mM): 374 mOsm/kg
Osmolality ([1]; 1-DNJ-HCl 30 mg/mL, Sodium Citrate Buffer 45 mM): 389 mOsm/kg
Osmolality ([1]; 1-DNJ-HCl 35 mg/mL, Sodium Citrate Buffer 20 mM): 353 mOsm/kg
Osmolality ([1]; 1-DNJ-HCl 35 mg/mL, Sodium Citrate Buffer 25 mM): 369 mOsm/kg
Osmolality ([1]; 1-DNJ-HCl 35 mg/mL, Sodium Citrate Buffer 30 mM): 384 mOsm/kg
Osmolality ([1]; 1-DNJ-HCl 35 mg/mL, Sodium Citrate Buffer 35 mM): 400 mOsm/kg
Osmolality ([1]; 1-DNJ-HCl 35 mg/mL, Sodium Citrate Buffer 40 mM): 415 mOsm/kg
Osmolality ([1]; 1-DNJ-HCl 35 mg/mL, Sodium Citrate Buffer 45 mM): 431 mOsm/kg
Osmolality ([1]; 1-DNJ-HCl 35 mg/mL, Sodium Citrate Buffer 50 mM): 447 mOsm/kg
Osmolality ([1]; 1-DNJ-HCl 40 mg/mL, Sodium Citrate Buffer 20 mM): 394 mOsm/kg
Osmolality ([1]; 1-DNJ-HCl 40 mg/mL, Sodium Citrate Buffer 25 mM): 410 mOsm/kg
Osmolality ([1]; 1-DNJ-HCl 40 mg/mL, Sodium Citrate Buffer 30 mM): 426 mOsm/kg
Osmolality ([1]; 1-DNJ-HCl 40 mg/mL, Sodium Citrate Buffer 35 mM): 441 mOsm/kg
Osmolality ([1]; 1-DNJ-HCl 40 mg/mL, Sodium Citrate Buffer 40 mM): 457 mOsm/kg
Osmolality ([1]; 1-DNJ-HCl 40 mg/mL, Sodium Citrate Buffer 45 mM): 472 mOsm/kg
Osmolality ([1]; 1-DNJ-HCl 40 mg/mL, Sodium Citrate Buffer 50 mM): 488 mOsm/kg
Osmolality ([1]; 1-DNJ-HCl 45 mg/mL, Sodium Citrate Buffer 20 mM): 436 mOsm/kg
Osmolality ([1]; 1-DNJ-HCl 45 mg/mL, Sodium Citrate Buffer 25 mM): 452 mOsm/kg
Osmolality ([1]; 1-DNJ-HCl 45 mg/mL, Sodium Citrate Buffer 30 mM): 467 mOsm/kg
Osmolality ([1]; 1-DNJ-HCl 45 mg/mL, Sodium Citrate Buffer 35 mM): 483 mOsm/kg
Osmolality ([1]; 1-DNJ-HCl 45 mg/mL, Sodium Citrate Buffer 40 mM): 498 mOsm/kg
Osmolality ([1]; 1-DNJ-HCl 45 mg/mL, Sodium Citrate Buffer 45 mM): 514 mOsm/kg
Osmolality ([1]; 1-DNJ-HCl 45 mg/mL, Sodium Citrate Buffer 50 mM): 530 mOsm/kg
Osmolality ([1]; 1-DNJ-HCl 50 mg/mL, Sodium Citrate Buffer 20 mM): 477 mOsm/kg
Osmolality ([1]; 1-DNJ-HCl 50 mg/mL, Sodium Citrate Buffer 25 mM): 493 mOsm/kg
Osmolality ([1]; 1-DNJ-HCl 50 mg/mL, Sodium Citrate Buffer 30 mM): 509 mOsm/kg
Osmolality ([1]; 1-DNJ-HCl 50 mg/mL, Sodium Citrate Buffer 35 mM): 524 mOsm/kg
Osmolality ([1]; 1-DNJ-HCl 50 mg/mL, Sodium Citrate Buffer 40 mM): 540 mOsm/kg
Osmolality ([1]; 1-DNJ-HCl 50 mg/mL, Sodium Citrate Buffer 45 mM): 555 mOsm/kg
Osmolality ([1]; 1-DNJ-HCl 50 mg/mL, Sodium Citrate Buffer 50 mM): 571 mOsm/kg
Osmolality ([1]; 1-DNJ-HCl 55 mg/mL, Sodium Citrate Buffer 20 mM): 519 mOsm/kg
Osmolality ([1]; 1-DNJ-HCl 55 mg/mL, Sodium Citrate Buffer 25 mM): 535 mOsm/kg
Osmolality ([1]; 1-DNJ-HCl 55 mg/mL, Sodium Citrate Buffer 30 mM): 550 mOsm/kg
Osmolality ([1]; 1-DNJ-HCl 55 mg/mL, Sodium Citrate Buffer 35 mM): 566 mOsm/kg
Osmolality ([1]; 1-DNJ-HCl 55 mg/mL, Sodium Citrate Buffer 40 mM): 581 mOsm/kg
Osmolality ([1]; 1-DNJ-HCl 55 mg/mL, Sodium Citrate Buffer 45 mM): 597 mOsm/kg
Osmolality ([1]; 1-DNJ-HCl 55 mg/mL, Sodium Citrate Buffer 50 mM): 613 mOsm/kg
Osmolality ([1]; 1-DNJ-HCl 60 mg/mL, Sodium Citrate Buffer 20 mM): 560 mOsm/kg
Osmolality ([1]; 1-DNJ-HCl 60 mg/mL, Sodium Citrate Buffer 25 mM): 576 mOsm/kg
Osmolality ([1]; 1-DNJ-HCl 60 mg/mL, Sodium Citrate Buffer 30 mM): 592 mOsm/kg
Osmolality ([1]; 1-DNJ-HCl 60 mg/mL, Sodium Citrate Buffer 35 mM): 607 mOsm/kg
Osmolality ([1]; 1-DNJ-HCl 60 mg/mL, Sodium Citrate Buffer 40 mM): 623 mOsm/kg
Osmolality ([1]; 1-DNJ-HCl 60 mg/mL, Sodium Citrate Buffer 45 mM): 638 mOsm/kg
Osmolality ([1]; 1-DNJ-HCl 60 mg/mL, Sodium Citrate Buffer 50 mM): 654 mOsm/kg
SMILES: OC[C@H]1NC[C@H](O)[C@@H](O)[C@@H]1O [1-DNJ-HCl, 1-deoxynojirimycin hydrochloride]
% RBC lysis (rat whole blood; 500 μL blood mixed with 500 μL sample (30 mg/mL AT2220 or 0.1% Triton X-100)): −0.3%
Avg OD (n = 4) (rat whole blood; 500 μL blood mixed with 500 μL sample, 30 mg/mL AT2220 dilution 1, 0.1% Triton X-100 dilution 100): 0.3535
